Assays:
STAT6 = biological target: T1, STAT6 (Homo sapiens, UniProt P42226); experiment: Stat6 Degrader Assay (HiBiT based, HeLa LgBiT clone 4.14); assay type: cell-based; conditions: HeLa LgBiT clone 4.14 HiBiT-STAT6, 4-24 h incubation; values given for compounds with >80% Emax; geometric mean; read-out: STAT6 degradation DC50
T1 construct: These cells express endogenous STAT6; host or cells: HeLa LgBiT clone 4.14
T1 sequence (P42226 1-847): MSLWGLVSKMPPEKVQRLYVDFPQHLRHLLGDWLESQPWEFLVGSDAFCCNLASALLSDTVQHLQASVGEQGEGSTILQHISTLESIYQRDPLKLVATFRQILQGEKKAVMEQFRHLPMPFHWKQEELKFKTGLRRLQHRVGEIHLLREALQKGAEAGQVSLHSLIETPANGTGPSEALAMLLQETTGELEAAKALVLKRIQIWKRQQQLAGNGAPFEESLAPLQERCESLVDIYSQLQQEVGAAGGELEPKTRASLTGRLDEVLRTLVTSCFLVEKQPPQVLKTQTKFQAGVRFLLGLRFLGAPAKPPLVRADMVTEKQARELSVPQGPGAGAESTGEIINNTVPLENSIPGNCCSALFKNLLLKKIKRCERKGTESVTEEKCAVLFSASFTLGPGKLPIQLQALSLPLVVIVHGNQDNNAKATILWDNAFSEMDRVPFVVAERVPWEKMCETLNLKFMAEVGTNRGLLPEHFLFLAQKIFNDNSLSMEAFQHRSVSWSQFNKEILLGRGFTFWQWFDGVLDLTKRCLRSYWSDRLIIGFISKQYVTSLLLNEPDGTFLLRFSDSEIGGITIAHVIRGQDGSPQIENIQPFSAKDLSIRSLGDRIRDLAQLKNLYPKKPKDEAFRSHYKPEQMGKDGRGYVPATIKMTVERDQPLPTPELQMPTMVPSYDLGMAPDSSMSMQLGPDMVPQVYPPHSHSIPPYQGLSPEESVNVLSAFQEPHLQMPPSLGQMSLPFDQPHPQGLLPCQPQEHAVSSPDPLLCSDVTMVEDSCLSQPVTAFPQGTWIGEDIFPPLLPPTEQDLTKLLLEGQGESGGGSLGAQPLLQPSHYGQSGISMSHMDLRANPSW
How it was run: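 Luminescence from HiBiT-STAT6 complementing stably expressed LgBiT in HeLa clone 4.14 reports remaining STAT6 protein. Cells (5000/well) exposed to compound for 4-24 h at 37° C; read 0.5 h after Nano-Glo addition. 100% degradation window set with 50 μM terfenadine; percent degradation plotted against concentration.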

[1] = system: Eotaxin-3 release in human whole blood stimulated with IL-4; experiment: Human Whole Blood Eotaxin-3 Assay (IL-4 stimulated eotaxin-3 release); assay type: cell-based; conditions: IL-4 stimulation, 48 h, values given for compounds with >80% Emax, geometric mean
Experimental: Human Whole Blood Eotaxin-3 Assay
This was a human whole blood assay using recombinant human Interleukin 4 to stimulate the blood and measuring the ability of the test compounds to inhibit eotaxin-3 release. The biological activities of the test compounds have been tested in human whole blood stimulated with IL-4 measuring Eotaxin-3 release. The test compounds were added to 384 well clear flat-bottom plate in a 4-fold serial dilution in triplicates using a liquid handler. Human whole blood stabilized in lithium-heparin tubes was added in a volume of 65 μL per well, resulting in a final DMSO concentration of 0.5%. The plate is incubated for 2 h at 37° C. under 5% CO2/95% air. Subsequently, 5 μL of recombinant human IL-4 (R&D Systems, cat #204-ILB) was added to the wells to a final concentration of […]. The plate was incubated for 48 h at 37° C. under 5% CO2/95% air. The plate was spun down for 10 minutes at 500×g and 20 μL supernatant was harvested and transferred to a 384 well v-bottom plate using a liquid handler and stored at −20° C. until further analysis. 10 μL supernatant was used to measure the level of Eotaxin-3 (CCL26) using Human Eotaxin-3 MSD kit from Mesocsale (Cat #K251UEK-4). The assay was performed according to the manufacture instructions.
The data from the human whole blood eotaxin-3 assay is shown in FIG. 2 for Examples 3u208, 3u246, 3u118, 3u119, 3u120, and 3u74 (where the effect in % is plotted against the test concentration in M on a log scale).

CNc1ccn(-c2ccnc3c2cc(CN2CCC(c4c(F)cc(C(=O)N5CCC(CN6CCN(Cc7ccc8c(c7)n(C)c(=O)n8[C@@H]7CCC(=O)NC7=O)CC6)CC5)cc4F)CC2)n3C)c(=O)c1 (single isomer, unassigned) [Example 3u31]
DC50 (STAT6): 2.4 nM
EC50 [1]: 2 nM

CNc1cc(=O)n(-c2ccnc3c2cc(CN2CCC(c4c(F)cc(C(=O)N5CCC(CN6CCN(Cc7ccc8c(c7)C(C)(C)C(=O)N8C7CCC(=O)NC7=O)CC6)CC5)cc4F)CC2)n3C)cc1F (stereo not shown) [Example 3u57, 3-(5-((4-((1-(3,5-difluoro-4-(1-((4-(5-fluoro-4-(methylamino)-2-oxopyridin-1 (2H)-yl)-1-methyl-1H-pyrrolo[2,3-b]pyridin-2-yl)methyl)piperidin-4-yl)benzoyl)piperidin-4-yl)methyl)piperazin-1-yl)methyl)-3,3-dimethyl-2-oxoindolin-1-yl)piperidine-2,6-dione]
DC50 (STAT6): 12 nM
EC50 [1]: 25.4 nM

CNc1ccn(-c2ccnc3c2cc(CN2CCC(c4c(C)cc(C(=O)N5CCC(CN6CCN(Cc7ccc8c(c7)n(C)c(=O)n8[C@@H]7CCC(=O)NC7=O)CC6)CC5)cc4F)CC2)n3C)c(=O)c1 (single isomer, unassigned) [Example 3u159]
DC50 (STAT6): 12.8 nM
EC50 [1]: 52.6 nM

CNc1cc(=O)n(-c2ccnc3c2cc([C@H](C)N2CC=C(c4c(F)cc(C(=O)N5CCC(CN6CCN(Cc7ccc8c(c7)n(C)c(=O)n8C7CCC(=O)NC7=O)CC6)CC5)cc4F)CC2)n3C)cc1F (mixture of isomers) [Example 3u51, 3-(5-((4-((1-(3,5-difluoro-4-(1-((S)-1-(4-(5-fluoro-4-(methylamino)-2-oxopyridin-1 (2H)-yl)-1-methyl-1H-pyrrolo[2,3-b]pyridin-2-yl)ethyl)-1,2,3,6-tetrahydropyridin-4-yl)benzoyl)piperidin-4-yl)methyl)piperazin-1-yl)methyl)-3-methyl-2-oxo-2,3-dihydro-1H-benzo[d]imidazol-1-yl)piperidine-2,6-dione]
DC50 (STAT6): 1.8 nM
EC50 [1]: 1.9 nM

CNc1ccn(-c2ccnc3c2cc([C@H](C)N2CC=C(c4c(C)cc(C(=O)N5CCC(CN6CCN(Cc7ccc8c(c7)n(C)c(=O)n8[C@@H]7CCC(=O)NC7=O)CC6)CC5)cc4F)CC2)n3C)c(=O)c1 (single isomer, unassigned) [Example 3u157]
DC50 (STAT6): 0.3 nM
EC50 [1]: 0.4 nM

CNc1cc(=O)n(-c2ccnc3c2cc([C@H](C)N2CC=C(c4c(C)cc(C(=O)N5CCC(CN6CCN(Cc7ccc8c(c7)C7(CC7)C(=O)N8[C@H]7CCC(=O)NC7=O)C[C@@H]6C)CC5)cc4F)CC2)n3C)cc1F (single isomer, unassigned) [Example 3u99]
DC50 (STAT6): 1.1 nM
EC50 [1]: 1.7 nM

C[C@H]1CN(Cc2ccc3c(c2)C2(CC2)C(=O)N3[C@@H]2CCC(=O)NC2=O)CCN1CC1CCN(C(=O)c2cc(F)c(C3=CCN([C@@H](C)c4cc5c(-n6cc(F)c7c(c6=O)CCN7)ccnc5n4C)CC3)c(F)c2)CC1 [Example 3u127, (R)-3-(5′-(((S)-4-((1-(3,5-difluoro-4-(1-((S)-1-(4-(7-fluoro-4-oxo-1,2,3,4-tetrahydro-5H-pyrrolo[3,2-c]pyridin-5-yl)-1-methyl-1H-pyrrolo[2,3-b]pyridin-2-yl)ethyl)-1,2,3,6-tetrahydropyridin-4-yl)benzoyl)piperidin-4-yl)methyl)-3-methylpiperazin-1-yl)methyl)-2′-oxospiro[cyclopropane-1,3′-indolin]-1′-yl)piperidine-2,6-dione]
DC50 (STAT6): 5.4 nM
EC50 [1]: 14.8 nM

CNc1cc(=O)n(-c2ccnc3c2cc(CN2CC=C(c4c(F)cc(C(=O)N5CCC(CN6CCN(Cc7ccc8c(c7)n(C)c(=O)n8C7CCC(=O)NC7=O)C[C@@H]6C)CC5)cc4F)CC2)n3C)cc1F (stereo partly drawn) [Example 3u54, 3-(5-(((S)-4-((1-(3,5-difluoro-4-(1-((4-(5-fluoro-4-(methylamino)-2-oxopyridin-1 (2H)-yl)-1-methyl-1H-pyrrolo[2,3-b]pyridin-2-yl)methyl)-1,2,3,6-tetrahydropyridin-4-yl)benzoyl)piperidin-4-yl)methyl)-3-methylpiperazin-1-yl)methyl)-3-methyl-2-oxo-2,3-dihydro-1H-benzo[d]imidazol-1-yl)piperidine-2,6-dione]
DC50 (STAT6): 12 nM
EC50 [1]: 2.7 nM

CNc1ccn(-c2ccnc3c2cc([C@H](C)N2CC=C(c4c(C)cc(C(=O)N(C)c5ccc(C6CCN(Cc7ccc8c(c7)n(C)c(=O)n8[C@@H]7CCC(=O)NC7=O)CC6)cc5)cc4F)CC2)n3C)c(=O)c1 (single isomer, unassigned) [Example 3u227]
DC50 (STAT6): 0.04 nM
EC50 [1]: 0.3 nM

CNc1cc(=O)n(-c2ccnc3c2cc([C@H](C)N2CC=C(c4c(C)cc(C(=O)N(C)c5ccc(C6CCN(Cc7ccc8c(c7)C(C)(C)C(=O)N8C7CCC(=O)NC7=O)CC6)cc5)cc4F)CC2)n3C)cc1F (stereo partly drawn) [Example 3u233, N-(4-(1-((1-(2,6-dioxopiperidin-3-yl)-3,3-dimethyl-2-oxoindolin-5-yl)methyl)piperidin-4-yl)phenyl)-3-fluoro-4-(1-((S)-1-(4-(5-fluoro-4-(methylamino)-2-oxopyridin-1 (2H)-yl)-1-methyl-1H-pyrrolo[2,3-b]pyridin-2-yl)ethyl)-1,2,3,6-tetrahydropyridin-4-yl)-N,5-dimethylbenzamide]
DC50 (STAT6): 0.2 nM
EC50 [1]: 1.3 nM

CNc1ccn(-c2ccnc3c2cc([C@H](C)N2CC=C(c4c(C)cc(C(=O)N5CCC(CN6CCN(Cc7cc8c(cc7F)n(C7CCC(=O)NC7=O)c(=O)n8C)C[C@@H]6C)CC5)cc4F)CC2)n3C)c(=O)c1 (stereo partly drawn) [Example 3u207, 3-(6-fluoro-5-(((S)-4-((1-(3-fluoro-5-methyl-4-(1-((S)-1-(1-methyl-4-(4-(methyl-amino)-2-oxopyridin-1 (2H)-yl)-1H-pyrrolo[2,3-b]pyridin-2-yl)ethyl)-1,2,3,6-tetrahydropyridin-4-yl)-benzoyl)piperidin-4-yl)methyl)-3-methylpiperazin-1-yl)methyl)-3-methyl-2-oxo-2,3-dihydro-1H-benzo[d]imidazol-1-yl)piperidine-2,6-dione]
DC50 (STAT6): 0.3 nM
EC50 [1]: 0.2 nM

CNc1cc(=O)n(-c2ccnc3c2cc(CN2CCC(c4c(F)cc(C(=O)N5CCC(CN6CCN(Cc7ccc8c(c7)n(C)c(=O)n8[C@@H]7CCC(=O)NC7=O)C[C@@H]6C)CC5)cc4F)CC2)n3C)cc1F (single isomer, unassigned) [Example 3u62]
DC50 (STAT6): 1.2 nM
EC50 [1]: 1.2 nM

Cc1cc(C(=O)N2CCC(CN3CCN(Cc4ccc5c(c4)C4(CC4)C(=O)N5C4CCC(=O)NC4=O)C[C@@H]3C)CC2)cc(F)c1C1=CCN([C@@H](C)c2cc3c(-n4cc(F)c(N)c(F)c4=O)ccnc3n2C)CC1 (stereo partly drawn) [Example 3u121, 3-(5′-(((S)-4-((1-(4-(1-((S)-1-(4-(4-amino-3,5-difluoro-2-oxopyridin-1 (2H)-yl)-1-methyl-1H-pyrrolo[2,3-b]pyridin-2-yl)ethyl)-1,2,3,6-tetrahydropyridin-4-yl)-3-fluoro-5-methyl-benzoyl)piperidin-4-yl)methyl)-3-methylpiperazin-1-yl)methyl)-2′-oxospiro[cyclopropane-1,3′-indolin]-1′-yl)piperidine-2,6-dione]
DC50 (STAT6): 2.5 nM
EC50 [1]: 2 nM

CNc1ccn(-c2ccnc3c2cc(CN2CCC(c4c(F)cc(C(=O)N5CCC(CN6CCN(Cc7ccc8c(c7)n(C7CC7)c(=O)n8[C@@H]7CCC(=O)NC7=O)C[C@@H]6C)CC5)cc4F)CC2)n3C)c(=O)c1 (single isomer, unassigned) [Example 3u218]
DC50 (STAT6): 2.6 nM
EC50 [1]: 0.8 nM

— patent US20250320206A1, “STAT6 DEGRADERS” (Gilead Sciences, Inc., priority 2024, published 2025)
